Four compounds from PMC7946228, “Discovery of novel candidates for anti-liposarcoma therapies by medium-scale high-throughput drug screening” (PLoS ONE, 2021) can be followed below.

Common to all, as to type: cell-based, human
Assay [1] relates to LPS853 liposarcoma cell line. Nature of the assay: CellTiter-Glo viability, GR50, 72h. The following applies: Homo sapiens; LPS 853, 72h; read-out: Half maximum effective concentration corrected for cell growth (GR50). As to the method:
(§1) Cell viability was measured using the CellTiter-Glo Luminescent Cell Viability Assay (Promega, Wisconsin, United States). For each experiment the same cell numbers were seeded as for the proliferation experiments. Seven drug concentrations were used, starting from 100μM with 10-fold dilutions and also a vehicle control appropriate for each drug (DMSO or ethanol). After 72h of drug or vehicle control treatment levels of ATP were measured with CellTiter-Glo. The data from six to nine biological replicates, each with three technical replicates were collected. A nonlinear regression model with different four-parameter log-logistic function was used for modelling of the drug dose-response using ‘GRmetrics’ R package version 1.8.1 [26]. The calculated GR50 metric is equivalent to the IC50 metric but takes into account the growth rate of cells. Therefore, it estimates better the effect of the compound on cell viability and allows for comparison between different cell lines with different growth rates.
For orientation: Cellular ATP, detected with luciferase, serves as a proxy for viable cell number.

Assay [2] deals with FU-DDLS-1 liposarcoma cell line. Nature of the assay: CellTiter-Glo viability, GR50, 72h. The following applies: Homo sapiens; FU-DDL S-1, 72h; read-out: Half maximum effective concentration corrected for cell growth (GR50). As to the method: as §1
Assay [3] deals with SA-4 liposarcoma cell line. Nature of the assay: CellTiter-Glo viability, GR50, 72h. The following applies: Homo sapiens; SA-4, 72h; read-out: Half maximum effective concentration corrected for cell growth (GR50). As to the method:
as §1

Assay [4] deals with T449 liposarcoma cell line. Nature of the assay: CellTiter-Glo viability, GR50, 72h. The following applies: Homo sapiens; T449, 72h; read-out: Half maximum effective concentration corrected for cell growth (GR50). How it is done:
as §1

The test system of assay [5] is LPS141 liposarcoma cell line. Nature of the assay: CellTiter-Glo viability, GR50, 72h. The following applies: Homo sapiens, LPS141; LPS 141, 72h; read-out: Half maximum effective concentration corrected for cell growth (GR50). How it is done:
as §1

The subject of assay [6] is LPS510 liposarcoma cell line. Nature of the assay: CellTiter-Glo viability, GR50, 72h. The following applies: Homo sapiens; LPS 510, 72h; read-out: Half maximum effective concentration corrected for cell growth (GR50). How it is done:
as §1

Assay [7] deals with LS2 liposarcoma cell line. Nature of the assay: CellTiter-Glo viability, GR50, 72h. The following applies: Homo sapiens; LS2, 72h; read-out: Half maximum effective concentration corrected for cell growth (GR50). As to the method: as §1
Assay [8] concerns GOT3 liposarcoma cell line. Nature of the assay: CellTiter-Glo viability, GR50, 72h. The following applies: Homo sapiens; GOT3, 72h; read-out: Half maximum effective concentration corrected for cell growth (GR50). How it is done: as §1
Assay [9] deals with SW872 liposarcoma cell line. Nature of the assay: CellTiter-Glo viability, GR50, 72h. The following applies: Homo sapiens, SW872; SW 872, 72h; read-out: Half maximum effective concentration corrected for cell growth (GR50). How it is done:
as §1

Assay [10] relates to NRH-LS1 liposarcoma cell line. Nature of the assay: CellTiter-Glo viability, GR50, 72h. The following applies: Homo sapiens; NRH-LS1, 72h; read-out: Half maximum effective concentration corrected for cell growth (GR50). How it is done:
as §1

In assay [11] the test system is LiSa-2 liposarcoma cell line. Nature of the assay: CellTiter-Glo viability, GR50, 72h. The following applies: Homo sapiens; LiSa-2, 72h; read-out: Half maximum effective concentration corrected for cell growth (GR50). As to the method:
as §1

Assay [12] relates to T1000 liposarcoma cell line. Nature of the assay: CellTiter-Glo viability, GR50, 72h. The following applies: Homo sapiens; T1000, 72h; read-out: Half maximum effective concentration corrected for cell growth (GR50). As to the method: as §1
Assay [13] concerns T778 liposarcoma cell line. Nature of the assay: CellTiter-Glo viability, GR50, 72h. The following applies: Homo sapiens; T778, 72h; read-out: Half maximum effective concentration corrected for cell growth (GR50). As to the method:
as §1

The subject of the next assay is liposarcoma cell lines. Nature of the assay: TUNEL apoptosis assay by flow cytometry. The following applies: growth arresting concentration, 17-72h, majority of cell lines. How it is done:
Cells were treated with drugs at the concentrations corresponding to previously established growth arresting concentrations and collected between 17 and 72h. Time of collection was individual for every drug/cell line combination; cells were collected after the beginning of complete growth inhibition (based on the growth curves data) but only when first signs of morphological change or cell death were visible (estimated microscopically approximately every 2h). After methanol fixation, cells were barcoded with different combinations of Pacific Blue/Pacific Orange dyes (Thermo Fisher Scientific) for different drug treatments. After mixing, cells were incubated in the TUNEL reaction mix for 1h at 37°C, according to the manufacturer’s instructions (Roche, Germany), stained with Streptavidin-Cy5 conjugated Ab and digested with RNAse. Cells were counter-stained with propidium iodide and analyzed using LSR II Flow Cytometer (BD Biosciences, NJ, USA. The data were processed with FlowJo Version 7.6.5 (Tree Star, Ashland, USA). The gating strategy is presented in Fig 3A. Cy-5 positive cells (as compared to control sample) were calculated as apoptotic. Cell cycles of non-apoptotic cells were analyzed using the built in FlowJo Cell Cycle Analysis module. Three independent biological replicates were done for each cell line/drug combination with exception of FU-DDLS-1 and T1000 –for which we only had two replicates available.
A general note: Flow cytometry measures light scatter and fluorescence of single cells or particles in a stream.

Each structure is given as a SMILES string. Some results are limits rather than exact numbers.

With `O=C(/C=C/c1cccnc1)NCCCCC1CCN(C(=O)c2ccccc2)CC1` [APO866], the IC50 in assay [1] is 1 nM; in assay [2], 1 nM; in assay [3], 10 nM; in [4], 1 nM; in [5] it was 6 nM; in assay [6] it was 3 nM. For the same compound, the IC50 in [7] is 8 nM; in assay [8], 5 nM; in [9], 4 nM; in assay [10], 1 nM; in [11], 8 nM; in assay [12], 6 nM. Also, in assay [13], the IC50 worked out at 3 nM. Further, the “apoptosis (increase in % of apoptotic cells)” value in the assay with liposarcoma cell lines is given as at most 5%.

Consider `Cn1cc(CNCC2CCN(c3ncc(C(=O)NO)cn3)CC2)c2ccccc21` [JNJ-26481585], for which the IC50 amounted to 18 nM in assay [1]; 12 nM in [2]; 44 nM in assay [3]; 25 nM in assay [4]; 102 nM in assay [5]; 33 nM in assay [6]. Also, the IC50 came out at 94 nM in assay [7]; 22 nM in [8]; 70 nM in assay [9]; 103 nM in assay [10]; 21 nM in [11]; 10 nM in assay [12]. Moreover, the IC50 in assay [13] is 25 nM. In addition, the “apoptosis (increase in % of apoptotic cells)” value with liposarcoma cell lines was “above 5%”.

Turning to `CC(C)[C@]12O[C@H]1[C@@H]1O[C@]13[C@]1(O[C@H]1C[C@H]1C4=C(CC[C@@]13C)C(=O)OC4)[C@@H]2O` [Triptolide], the IC50 in assay [1] was 5 nM; in [2], 8 nM; in assay [3], 13 nM; in assay [4] it was 8 nM; in assay [5], 12 nM; in assay [6], 5 nM. Moreover, the IC50 in [7] came to 6 nM; in assay [8], 7 nM; in assay [9], 2 nM; in assay [10], 7 nM; in assay [11], 9 nM; in [12], 8 nM. In assay [13], the IC50 amounted to 8 nM. The “apoptosis (increase in % of apoptotic cells)” value in the assay with liposarcoma cell lines is on record as “above 15%”.

Take `COCCn1c2c([n+](Cc3cnccn3)c1C)C(=O)c1ccccc1C2=O` [YM155]: the IC50 was determined as 4 nM in assay [1]; 49 nM in assay [2]; 30 nM in [3]; 712 nM in [4]; 11 nM in assay [5]; 93 nM in assay [6]. In addition, the IC50 in assay [7] is 358 nM; in assay [8] it was 187 nM; in assay [9], 2 nM; in [10], 69 nM; in [11], 234 nM; in assay [12], 17 nM. Moreover, in assay [13], the IC50 stood at 96 nM. In the assay with liposarcoma cell lines, the “apoptosis (increase in % of apoptotic cells)” value was “above 5%”.
